Measurements as given in ChEMBL document CHEMBL1201862, “PubChem BioAssay data set” (2004).
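Five compound concentrations were applied to cells in 96-well plates for 48 hours; endpoints were derived by simple linear interpolation of the resulting dose-response curve. At the GI50, growth is halved.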 The source made the active and inactive calls. Rule as the data show it: active = GI50 up to about 1.1 µM and inactive = higher.

Legend:
Assay in all cases: NCI-60 cell line screen, 48 h
786-0 = system: 786-0
A498 = system: A498
A549 = system: A549
ACHN = system: ACHN
CAKI-1 = system: CAKI-1
CCRF-CEM = system: CCRF-CEM
COLO 205 = system: COLO 205
DLD-1 = system: DLD-1
DMS-273 = system: DMS-273
EKVX = system: EKVX
HCC 2998 = system: HCC 2998
HCT-116 = system: HCT-116
HCT-15 = system: HCT-15
HL-60 = system: HL-60
HOP-62 = system: HOP-62
HOP-92 = system: HOP-92
HT-29 = system: HT-29
IGROV-1 = system: IGROV-1
K562 = system: K562
KM-20L2 = system: KM-20L2
KM12 = system: KM12
LXFL 529 = system: LXFL 529
M14 = system: M14
M19-MEL = system: M19-MEL
MOLT-4 = system: MOLT-4
NCI-H226 = system: NCI-H226
NCI-H23 = system: NCI-H23
NCI-H460 = system: NCI-H460
NCI-H522 = system: NCI-H522
OVCAR-3 = system: OVCAR-3
OVCAR-4 = system: OVCAR-4
OVCAR-5 = system: OVCAR-5
OVCAR-8 = system: OVCAR-8
RPMI-8226 = system: RPMI-8226
RXF 393 = system: RXF 393
RXF 631 = system: RXF 631
SF-268 = system: SF-268
SF-295 = system: SF-295
SF-539 = system: SF-539
SK-MEL-28 = system: SK-MEL-28
SK-MEL-2 = system: SK-MEL-2
SK-MEL-5 = system: SK-MEL-5
SK-OV-3 = system: SK-OV-3
SN12C = system: SN12C
SNB-19 = system: SNB-19
SNB-75 = system: SNB-75
SNB-78 = system: SNB-78
SR = system: SR
SW-620 = system: SW-620
U-251 = system: U-251
UACC-257 = system: UACC-257
UACC-62 = system: UACC-62
UO-31 = system: UO-31
XF498 = system: XF498
DMS-114 = system: DMS-114
LOX IMVI = system: LOX IMVI
Malme-3M = system: Malme-3M
TK-10 = system: TK-10
HOP-18 = system: HOP-18

## Cc1cccc(C)c1NC(=O)CCCC(=O)C(C#N)c1ccccc1 (configuration not stated)
786-0
  GI50: > 10 µM (inactive)
A498
  GI50: > 10 µM (inactive)
A549
  GI50: > 10 µM (inactive)
ACHN
  GI50: > 100 µM (inactive)
CAKI-1
  GI50: > 100 µM (inactive)
CCRF-CEM
  GI50: > 100 µM (inactive)
COLO 205
  GI50: > 100 µM (inactive)
DLD-1
  GI50: > 100 µM (inactive)
DMS-273
  GI50: > 10 µM (inactive)
EKVX
  GI50: > 10 µM (inactive)
HCC 2998
  GI50: > 10 µM (inactive)
HCT-116
  GI50: > 100 µM (inactive)
HCT-15
  GI50: > 10 µM
HL-60
  GI50: > 100 µM (inactive)
HOP-62
  GI50: > 10 µM (inactive)
HOP-92
  GI50: > 100 µM (inactive)
HT-29
  GI50: > 10 µM (inactive)
IGROV-1
  GI50: > 100 µM (inactive)
K562
  GI50: > 100 µM (inactive)
KM-20L2
  GI50: > 10 µM (inactive)
KM12
  GI50: > 10 µM (inactive)
LXFL 529
  GI50: > 100 µM (inactive)
M14
  GI50: > 100 µM (inactive)
M19-MEL
  GI50: > 100 µM (inactive)
MOLT-4
  GI50: > 100 µM (inactive)
NCI-H226
  GI50: > 100 µM (inactive)
NCI-H23
  GI50: > 100 µM (inactive)
NCI-H460
  GI50: > 10 µM (inactive)
NCI-H522
  GI50: > 100 µM (inactive)
OVCAR-3
  GI50: > 10 µM (inactive)
OVCAR-4
  GI50: > 100 µM (inactive)
OVCAR-5
  GI50: > 10 µM (inactive)
OVCAR-8
  GI50: > 10 µM (inactive)
RPMI-8226
  GI50: > 100 µM (inactive)
RXF 393
  GI50: > 100 µM (inactive)
RXF 631
  GI50: > 100 µM (inactive)
SF-268
  GI50: > 10 µM (inactive)
SF-295
  GI50: > 10 µM (inactive)
SF-539
  GI50: > 10 µM (inactive)
SK-MEL-28
  GI50: > 100 µM (inactive)
SK-MEL-2
  GI50: > 100 µM (inactive)
SK-MEL-5
  GI50: > 100 µM (inactive)
SK-OV-3
  GI50: 91 µM (inactive)
SN12C
  GI50: > 10 µM (inactive)
SNB-19
  GI50: > 10 µM (inactive)
SNB-75
  GI50: > 100 µM (inactive)
SNB-78
  GI50: > 100 µM (inactive)
SR
  GI50: > 100 µM (inactive)
SW-620
  GI50: > 100 µM (inactive)
U-251
  GI50: > 10 µM (inactive)
UACC-257
  GI50: > 100 µM (inactive)
UACC-62
  GI50: > 10 µM (inactive)
UO-31
  GI50: > 100 µM (inactive)
XF498
  GI50: > 10 µM (inactive)

## O=C(CO)C1CC2C=CC1C2 (configuration not stated)
786-0
  GI50: > 100 µM (inactive)
A498
  GI50: > 100 µM (inactive)
A549
  GI50: > 100 µM (inactive)
ACHN
  GI50: > 100 µM (inactive)
CAKI-1
  GI50: > 100 µM (inactive)
CCRF-CEM
  GI50: > 100 µM (inactive)
COLO 205
  GI50: > 100 µM (inactive)
DMS-114
  GI50: > 100 µM (inactive)
DMS-273
  GI50: > 100 µM (inactive)
EKVX
  GI50: > 100 µM (inactive)
HCT-116
  GI50: > 100 µM (inactive)
HCT-15
  GI50: > 100 µM
HL-60
  GI50: > 100 µM (inactive)
HOP-62
  GI50: > 100 µM (inactive)
HOP-92
  GI50: > 100 µM (inactive)
HT-29
  GI50: > 100 µM (inactive)
IGROV-1
  GI50: > 100 µM (inactive)
K562
  GI50: > 100 µM (inactive)
KM12
  GI50: > 100 µM (inactive)
LOX IMVI
  GI50: > 100 µM (inactive)
LXFL 529
  GI50: > 100 µM (inactive)
M14
  GI50: > 100 µM (inactive)
M19-MEL
  GI50: > 100 µM (inactive)
MOLT-4
  GI50: > 100 µM (inactive)
Malme-3M
  GI50: > 100 µM (inactive)
NCI-H23
  GI50: > 100 µM (inactive)
NCI-H460
  GI50: > 100 µM (inactive)
NCI-H522
  GI50: > 100 µM (inactive)
OVCAR-3
  GI50: > 100 µM (inactive)
OVCAR-4
  GI50: > 100 µM (inactive)
OVCAR-5
  GI50: > 100 µM (inactive)
OVCAR-8
  GI50: > 100 µM (inactive)
RPMI-8226
  GI50: > 100 µM (inactive)
RXF 393
  GI50: > 100 µM (inactive)
RXF 631
  GI50: > 100 µM (inactive)
SF-268
  GI50: > 100 µM (inactive)
SF-295
  GI50: > 100 µM (inactive)
SF-539
  GI50: > 100 µM (inactive)
SK-MEL-28
  GI50: > 100 µM (inactive)
SK-MEL-2
  GI50: > 100 µM (inactive)
SK-MEL-5
  GI50: > 100 µM (inactive)
SK-OV-3
  GI50: > 100 µM (inactive)
SN12C
  GI50: > 100 µM (inactive)
SNB-19
  GI50: > 100 µM (inactive)
SNB-75
  GI50: > 100 µM (inactive)
SNB-78
  GI50: > 100 µM (inactive)
SW-620
  GI50: > 100 µM (inactive)
TK-10
  GI50: > 100 µM (inactive)
U-251
  GI50: > 100 µM (inactive)
UACC-257
  GI50: > 100 µM (inactive)
UACC-62
  GI50: > 100 µM (inactive)
UO-31
  GI50: > 100 µM (inactive)
XF498
  GI50: > 100 µM (inactive)

## COc1ccc(/C(=N\NC(=O)NN)C(c2ccc(OC)cc2)C2(O)C(=O)Nc3c(Cl)cc(Cl)cc32)cc1 (configuration not stated)
786-0
  GI50: 61.4 µM (inactive)
A549
  GI50: > 100 µM (inactive)
ACHN
  GI50: > 100 µM (inactive)
CCRF-CEM
  GI50: 13.8 µM (inactive)
COLO 205
  GI50: > 100 µM (inactive)
DLD-1
  GI50: > 100 µM (inactive)
DMS-114
  GI50: 90.8 µM (inactive)
EKVX
  GI50: > 100 µM (inactive)
HCC 2998
  GI50: > 100 µM (inactive)
HCT-116
  GI50: 56.8 µM (inactive)
HL-60
  GI50: 13.8 µM (inactive)
HOP-18
  GI50: > 100 µM (inactive)
HOP-62
  GI50: > 100 µM (inactive)
HOP-92
  GI50: > 100 µM (inactive)
HT-29
  GI50: > 100 µM (inactive)
IGROV-1
  GI50: > 100 µM (inactive)
KM-20L2
  GI50: > 100 µM (inactive)
KM12
  GI50: > 100 µM (inactive)
LOX IMVI
  GI50: 99.3 µM (inactive)
LXFL 529
  GI50: > 100 µM (inactive)
M14
  GI50: > 100 µM (inactive)
M19-MEL
  GI50: > 100 µM (inactive)
MOLT-4
  GI50: 5.93 µM (inactive)
Malme-3M
  GI50: > 100 µM (inactive)
NCI-H226
  GI50: > 100 µM (inactive)
NCI-H23
  GI50: > 100 µM (inactive)
NCI-H460
  GI50: > 100 µM (inactive)
OVCAR-3
  GI50: > 100 µM (inactive)
OVCAR-4
  GI50: > 100 µM (inactive)
OVCAR-5
  GI50: > 100 µM (inactive)
OVCAR-8
  GI50: > 100 µM (inactive)
RPMI-8226
  GI50: 56.8 µM (inactive)
RXF 393
  GI50: > 100 µM (inactive)
RXF 631
  GI50: > 100 µM (inactive)
SF-268
  GI50: > 100 µM (inactive)
SF-295
  GI50: > 100 µM (inactive)
SK-MEL-28
  GI50: > 100 µM (inactive)
SK-MEL-2
  GI50: > 100 µM (inactive)
SK-MEL-5
  GI50: > 100 µM (inactive)
SN12C
  GI50: > 100 µM (inactive)
SNB-19
  GI50: > 100 µM (inactive)
SNB-75
  GI50: > 100 µM (inactive)
SNB-78
  GI50: > 100 µM (inactive)
SW-620
  GI50: > 100 µM (inactive)
TK-10
  GI50: > 100 µM (inactive)
U-251
  GI50: > 100 µM (inactive)
UACC-257
  GI50: > 100 µM (inactive)
UACC-62
  GI50: > 100 µM (inactive)
UO-31
  GI50: > 100 µM (inactive)
XF498
  GI50: > 100 µM (inactive)
